{
  "source": "paper PMC4473678",
  "about": "“Swedish mutant APP-based BACE1 binding site peptide reduces APP β-cleavage and cerebral Aβ levels in Alzheimer’s mice” (Scientific Reports, 2015)",
  "key": {"[1]": {"settings": "phase II, suspended June 2013; cited from earlier work", "description": "Although these BACE1-null abnormalities are relatively mild, they are complex neurological phenotypes that raise a concern that complete inhibition or entire absence of BACE1 function may not be fre ..."}, "recombinant BACE1": {"system": "recombinant BACE1", "test": "BACE1 activity (FRET) assay, cell-free", "format": "biochemical", "settings": "for % of Inhibition of BACE1: FRET substrate Rh-EVNLDAEFK-quencher, dark, ex 545/em 585 nm, mean ± SD", "experimental": "The BACE1 inhibiting activity of APP-based BACE1 site binding peptides were determined using a fluorescence resonance energy transfer (FRET) assay (Pan Vera Co., Madison, WI), which employs a recombinant baculovirus-expressed BACE1 and a specific substrate (Rh-[…]-quencher) that is based on the APPswe mutation. This specific peptide substrate becomes highly fluorescent upon enzymatic cleavage. […] Then, 10 μL of BACE1 stop buffer (2.5 M sodium acetate) was added to the mixture. Fluorescence was read using a fluorometer, with excitation at 545 nm and emission at 585 nm."}, "[2]": {"molecular_target": "recombinant BACE1 protein (β-site APP cleaving enzyme 1) (UniProt P56817)", "sequence (P56817 46-501)": "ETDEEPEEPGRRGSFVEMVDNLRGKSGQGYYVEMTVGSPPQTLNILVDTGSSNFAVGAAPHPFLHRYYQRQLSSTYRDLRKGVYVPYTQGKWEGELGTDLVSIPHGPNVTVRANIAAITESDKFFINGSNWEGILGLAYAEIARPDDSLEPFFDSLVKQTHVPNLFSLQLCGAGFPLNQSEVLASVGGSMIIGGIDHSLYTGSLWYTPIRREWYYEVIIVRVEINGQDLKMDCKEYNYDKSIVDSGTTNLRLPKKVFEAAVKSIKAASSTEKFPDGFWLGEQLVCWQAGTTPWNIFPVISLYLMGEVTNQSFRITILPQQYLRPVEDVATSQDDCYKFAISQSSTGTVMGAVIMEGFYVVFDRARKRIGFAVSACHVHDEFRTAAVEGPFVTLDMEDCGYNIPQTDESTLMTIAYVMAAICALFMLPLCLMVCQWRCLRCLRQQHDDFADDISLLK"}, "treated patients": {"system": "treated patients", "settings": "Phase III; cited from earlier work", "description": "Presenilin 1 and 2 (PS1/PS2), two integral membrane proteins found in the endoplasmic reticulum and Golgi apparatus, are the major enzymatic targets for γ-secretase inhibition for the treatment of AD[5]. However, apart from their roles in AD, PS1/PS2 also controls the Notch signaling pathway responsible for cell proliferation and differentiation during embryonic development. PS1/PS2-null mice have massive neuronal loss, skeletal defects, underdeveloped subventricular areas and severe hemorrhages, and only a few types of PS1/PS2-null mouse models survive after birth. Other subst ..."}, "BACE1": {"system": "BACE1", "settings": "cited from earlier work"}, "brain of 5XFAD mice": {"system": "brain of 5XFAD mice", "settings": "mouse, in vivo", "method": "5XFAD mice at 2 months of age (n = 5, female) were treated intraperitoneally with biotin-labeled TAT-APPsweBBP or APPsweBBP (100 nmol/kg) daily for 5 days and then euthanized 4 h after the last injection. Brain tissues were removed, sectioned and stained with anti-BACE1 and anti-biotin antibodies.\nFixed cell cultures and brain sections were stained with indicated antibodies and then treated with donkey anti-mouse IgG conjugated with Alexa Fluor 488 (1:200) or goat anti-rabbit IgG conjugated with Alexa Fluor 594 (1:200; Invitrogen, Carlsbad, CA). The slides were then washed, mounted with DAPI medium (Vector Laboratories, Burlingame, CA) and visualized with an Olympus FV1000 confocal microscope (Tokyo, Japan)."}, "5XFAD mice [3]": {"system": "5XFAD mice", "test": "β-amyloid immunohistochemistry (4G8), 5XFAD mice", "format": "in vivo, mouse", "settings": "100 nmol/kg i.p. daily, 8 weeks, RSC, EC and H regions, n = 10, 5 female/5 male", "experimental": "(§1) Transgenic AD mice [5XFAD; B6SJL-Tg(APPSwFlLon,PSEN1*M146L*L286V) 6799Vas/Mmjax] at 2.5 months of age were obtained from the Jackson Laboratory (Bar Harbor, ME) and housed and maintained in the Animal Facility of College of Medicine at University of South Florida (USF). The mice at 3.5 months of age were treated with TAT-APPsweBBP, TAT peptide (100 nmol/kg in 100 μL PBS) or PBS (100 μL) daily by intraperitioneal injection (i.p.) for eight consecutive weeks. The mice were subjected to behavioral testing after 8-week treatment and then euthanized for immunohistochemical, WB and ELISA analyses. Animals were housed and maintained at USF and all experiments were in compliance with protocols approved by USF Institutional Animal Care and Use Committee. All methods were performed in accordance with relevant guidelines and regulations.\nFor paraffin brain tissues, we sectioned five coronal sections per region with a 100-μm interval and a thickness of 5-μm for retrosplenial cortex (RSC), entorhinal cortex (EC), and hippocampus (H), located at bregma −2.92 to −3.64 mm. […] Images were acquired as digitized tagged-image format files (to retain maximum resolution) using a BX60 microscope with an attached CCD camera system (DP-70, Olympus, Tokyo, Japan), and digital images were routed into a Windows PC for quantitative analyses using SimplePCI software (Hamamatsu Photonics, Hamamatsu, Shizuoka, Japan). […]"}, "WT mice [4]": {"system": "WT mice", "test": "Rotarod test, WT mice", "format": "in vivo, mouse", "settings": "100 nmol/kg i.p. daily, 8 weeks, n = 10 per treatment"}, "[5]": {"system": "recombinant BACE1 protein", "test": "Immunoprecipitation/WB of peptide-BACE1 binding, cell-free", "settings": "10 μg biotin-labeled peptide with 10 μL recombinant BACE1 (1.0 U/mL), 4 h, 37 °C; anti-BACE1 IP/anti-biotin WB and reverse", "experimental": "In order to confirm that APPsweBBP containing the β-cleavage site could bind to and be consequently proteolyzed by BACE1, 10 μg of biotin-labeled TAT-APPsweBBP was incubated with or without 10 μL of recombinant BACE1 protein (1.0 U/mL) in BACE1 reaction buffer for 4 h at 37 °C and then subjected to WB analysis as described previously. In addition, we performed immunoprecipitation (IP) and WB analyses of this mixture with anti-BACE1 and anti-biotin antibodies to confirm that TAT-APPsweBBP, but not TAT, specifically binds to BACE1."}, "Akt and MBP": {"system": "Akt and MBP", "test": "WB of myelin signaling (Akt, MBP) in brain homogenates, 5XFAD mice", "format": "in vivo, mouse", "settings": "TAT-APPsweBBP, TAT and PBS groups compared", "experimental": "as §1\nWB analysis was performed as previously described. Briefly, the proteins from the various cell-free suspensions, cell lysates and brain homogenates were electrophoretically separated using 10% bicine/tris gel (8 M urea) for proteins less than 5 kD or 10% tricine/tris gels for larger proteins. Electrophoresed proteins were transferred to polyvinylidene difluoride membranes (Bio-Rad, Richmond, CA), washed and blocked for 2 h at room temperature in Tris-buffered saline containing 5% (w/v) nonfat dry milk (TBS/NFDM). […]"}, "5XFAD mice [6]": {"system": "5XFAD mice", "test": "Rotarod test, 5XFAD mice", "format": "in vivo, mouse", "settings": "100 nmol/kg i.p. daily, 8 weeks, n = 10 per treatment", "experimental": "as §1\nThe rotarod task was also performed to exclude the possibility that positive effects of any treatment in RAWM test are due to improvements in sensorimotor ability. Mice were positioned on the rod (diameter 3.6 cm) of the equipment (Rotarod 7650 accelerating model; Ugo Basile, Biological Research Apparatus, Varese, Italy), which was initially set at 1.0 rpm. The rod was then allowed to steadily accelerate up to 40.0 rpm over a 3-min session and evaluation was made by monitoring latency to fall."}, "WT mice [7]": {"system": "WT mice", "test": "Radial arm water maze (RAWM), WT mice", "format": "in vivo, mouse", "settings": "100 nmol/kg i.p. daily, 8 weeks, n = 10 per treatment"}, "[8]": {"settings": "peptide final concentration 20 μM, 90 min, room temperature"}},
  "note": "“Also recorded” adds a separate entry of the source.",
  "data": [
    {"compound": "NC1=N[C@@]2(c3cc(NC(=O)c4ccc(F)cn4)ccc3F)COC[C@H]2CS1", "note": "[LY2886721]", "values": [
      {"measurement": "liver toxicity", "setting": "[1]", "value": "possible liver toxicity"}
    ]},
    {"compound": "EVKMDAEFR", "values": [
      {"measurement": "% of Inhibition of BACE1", "setting": "recombinant BACE1; [8]", "value": "4.89 ± 0.06", "unit": "%"}
    ]},
    {"compound": "APPwt BACE1 binding site peptide (APPwtBBP)", "values": [
      {"measurement": "percent inhibition of BACE1 activity in a cell-free FRET assay (substrate Rh-…-quencher), peptide at 20 μM", "setting": "[2]", "value": 16.2, "unit": "%"}
    ]},
    {"compound": "CC(C)[C@H](O)C(=O)N[C@@H](C)C(=O)N[C@@H]1C(=O)N(C)CCc2ccccc21", "note": "[semagacestat]", "values": [
      {"measurement": "activities of daily living and cognition", "setting": "treated patients", "value": "activities of daily living and cognition even worsened in the treated patients"}
    ]},
    {"compound": "EVNLA*AEF [OM99-2]", "values": [
      {"measurement": "BBB crossing", "setting": "BACE1", "value": "too large to cross the BBB"},
      {"measurement": "potency", "setting": "BACE1", "value": "high level of potency"},
      {"measurement": "stability", "setting": "BACE1", "value": "not stable enough for use in therapeutic trials"}
    ]},
    {"compound": "biotin-labeled TAT-APPsweBBP (human Swedish mutant APP BACE1 binding site peptide conjugated to the HIV-1 TAT protein-transduction domain) (from UniProt P05067 665-676)", "values": [
      {"measurement": "percent inhibition of BACE1 activity in a cell-free FRET assay (substrate Rh-…-quencher), peptide at 0.05, 0.5, 5 and 20 μM", "setting": "[2]", "value": "> 90", "unit": "%"}
    ]},
    {"compound": "EISEVNLDAEFR [12-AA-residue fragment derived from human APPswe, containing APPswe β-cleavage sites (Glu665–Arg676 of APPswe770 isoform)]", "values": [
      {"measurement": "BBB penetration (Fig. S4 legend)", "setting": "brain of 5XFAD mice", "value": "stopped at the capillary lumen"},
      {"measurement": "biotin distribution, 5XFAD versus WT control mice", "setting": "brain of 5XFAD mice; ip", "value": "No noticeable differences in biotin distribution"},
      {"measurement": "BACE1 inhibition (result in words)", "setting": "recombinant BACE1; FRET assay, APPsweBBP or TAT-APPsweBBP at 0.05, 0.5, 5 and 20 μM (Fig. 1)", "value": "strongly inhibits BACE1 activity; also recorded: competitively inhibits the cleavage of commercial BACE1 substrate; also recorded: most effective BACE1 inhibitor; also recorded: much greater"},
      {"measurement": "percentage inhibition of BACE1", "setting": "recombinant BACE1; FRET assay, peptide final concentration 20 μM, 90 min, room temperature", "value": "~ 40%"},
      {"measurement": "% of Inhibition of BACE1", "setting": "recombinant BACE1; [8]", "value": "38.43 ± 1.01", "unit": "%"}
    ]},
    {"compound": "APPswe BACE1 binding site peptide (APPsweBBP) (from UniProt P05067 665-676)", "values": [
      {"measurement": "percent inhibition of BACE1 activity in a cell-free FRET assay (substrate Rh-…-quencher), peptide at 20 μM", "setting": "[2]", "value": 38.4, "unit": "%"}
    ]},
    {"compound": "YGRKKRRQRRR [TAT (YGRKKRRQRRR), reference compound]", "values": [
      {"measurement": "β-amyloid plaques / 4G8 immunoreactive area", "setting": "5XFAD mice [3]", "value": "no significant difference between TAT peptide and PBS groups"},
      {"measurement": "rotarod latency to fall", "setting": "WT mice [4]", "value": "no differences between treatment groups on each day"},
      {"measurement": "% of Inhibition of BACE1", "setting": "recombinant BACE1; [8]", "value": "3.32 ± 0.02", "unit": "%"},
      {"measurement": "binding to BACE1 (co-immunoprecipitation)", "setting": "[5]", "value": "but not TAT peptide, binds to BACE1"},
      {"measurement": "Akt (total/phosphorylated) in brain homogenates", "setting": "Akt and MBP", "value": "differ between TAT-APPsweBBP-, TAT- and PBS-treated 5XFAD mice"},
      {"measurement": "myelin basic protein (MBP) expression in brain homogenates", "setting": "Akt and MBP", "value": "differ between TAT-APPsweBBP-, TAT- and PBS-treated 5XFAD mice"},
      {"measurement": "rotarod latency to fall / motor performance", "setting": "5XFAD mice [6]", "value": "no differences between treatment groups on each day"},
      {"measurement": "RAWM entry-arm errors", "setting": "WT mice [7]", "value": "no difference among the various treatment groups"}
    ]},
    {"compound": "TAT-APPwtBBP (APPwt BACE1 binding site peptide fused with TAT)", "values": [
      {"measurement": "percent inhibition of BACE1 activity in a cell-free FRET assay (substrate Rh-…-quencher), peptide at 20 μM", "setting": "[2]", "value": 21, "unit": "%"}
    ]},
    {"compound": "YGRKKRRQRRREISEVKMDAEFR [APPwtBBP fused with TAT]", "values": [
      {"measurement": "% of Inhibition of BACE1", "setting": "recombinant BACE1; [8]", "value": "21.01 ± 1.42", "unit": "%"}
    ]},
    {"compound": "EVNLDAEFR", "values": [
      {"measurement": "% of Inhibition of BACE1", "setting": "recombinant BACE1; [8]", "value": "14.32 ± 0.04", "unit": "%"}
    ]},
    {"compound": "EISEVKMDAEFR", "values": [
      {"measurement": "% of Inhibition of BACE1", "setting": "recombinant BACE1; [8]", "value": "16.23 ± 0.29", "unit": "%"}
    ]}
  ]
}
